According to patent US11471478B2, “Use of cyclodextrins in diseases and disorders involving phospholipid dysregulation” (priority 2017, dated 2022):
Several values for one entry are separate records, joined by “and”; a condition that tells them apart may be missing. Equal entries are not always repeated.

Columns and labels:
[1] = tested on: MDA-MB 231 and MCF-7 human breast epithelial cell lines; assay: Wound healing / gap closure migration assay; assay type: cell-based; conditions: 2 h treatment, MDA-MB 231 and MCF-7
Protocol: Published results have shown that β-CD inhibits human MDA-MB 231 cell migration (Guerra F S, Sampaio LdS, et al. (2016) Translational Medicine Communications 1:3). This inhibition was attributed to the ability of β-CD to “deplete cholesterol”. β-CD, however, depletes also phospholipids. […] Cells were cultured in 24-well culture plates (Cytoselect CBA-120, 0.9 mm wound healing/gap closure migration assay) for 24 h with wound healing insert in place. Cells were then treated for 2 h with HP-β-CD, HP-α-CD, or control. Protocol: Warm up the 24-well plate (CBA-120, Cell BioLabs Inc.) with 0.9 mm CytoSelect Wound Healing Inserts at room temperature for 10 min. Using sterile forceps, orient the desired number of inserts in the plate wells with their “wound field” aligned in the same direction. […] Add 500 μL of cell suspension to each well by carefully inserting the pipette tip through the open end at the top of the insert. For optimal cell dispersion, add 250 μL of cell suspension to either side of the open ends at the top of the insert. Incubate cells in a cell culture incubator for 12-24 hours. Carefully remove the insert from the well to begin the wound healing assay. Use sterile forceps to grab and lift the insert slowly from the plate well. Slowly aspirate and discard the media from the wells. Wash wells with media to remove dead cells and debris. Finally, add media to wells to keep cells hydrated. Repeat wash if wells still have debris or unattached cells. When washing is complete, add media with FBS and/or compounds to continue cell culture and wound healing process. Agents that inhibit or stimulate cell migration can be added directly to the wells. Incubate cells in a cell culture incubator (2 hours) and then wash cells with PBS and then add fresh media without compounds. Incubate 12-24 hours before wash and fixing. Remove the fixation solution and add 400 μL of Cell Stain Solution to each well. Allow the stain to incubate with the cells for 15 minutes at room temperature. Aspirate and discard the solution. Carefully wash each stained well 3× with deionized water. Discard washes and allow cells to dry at room temperature. Cells that migrated into the wounded area or protruded from the border of the wound were visualized and photographed under an inverted microscope. Determine the surface area of the defined wound area: Total Surface Area=0.9 mm×length. Determine the surface area of the migrated cells into the wound area: Migrated Cell Surface Area=length of cell migration (mm)×2× length. Percent Closure (%)=Migrated Cell Surface Area/Total Surface Area×100 (see FIG. 36)

[2] = tested on: MDA-MB-231 breast cancer cells; assay: NSG mice injected with human MDA-MB-231 breast cancer cells; assay type: in vivo
Protocol: NSG mice (NOD.Cg-Prkdcscid Il2rgtm1Wjl/SzJ, strain #005557 (10 wk old) were obtained from Jackson Laboratories (Bar Harbor, Me.), housed in isolated quarters, and fed with autoclaved water and food.
An MDA-MB-231 cell line was obtained (ATCC) and kept frozen in liquid nitrogen. Upon start of culture, cells were thawed (1.5 min in 37° C. water) and transferred to DMEM/F-12 supplemented with 5% FBS, 2 mM L-glutamine, 1 mM sodium pyruvate, and 0.02 mM non-essential amino acids. Cells were grown to several millions in 60 mm dishes at 70-80% confluence. Before injection, cells were briefly rinsed twice in PBS followed by Versene (EDTA, Invitrogen) and placed on ice with excess phosphate-buffered saline and phenol red-free matrigel basement membrane extract to a concentration of about 15 mg/mL matrigel. 100 μL cell mixture (20,000 cells or saline only) were injected into the lactiferous duct of the 3rd or 4th mammary glands under brief isofluorane anesthesia. Groups of 15 mice each were injected IP with 800 mg/kg of HP-α-CD, HP-β-CD per week (over four days, Mon, Tue, Thu, Fri), or saline (control) for six weeks. Size of the primary tumor was measured weekly.
Breast tissue were palpated and measured twice a week with a micro-metric analytical device scaled to 1 mm precision. Mice were weighed weekly on a digital scale (0.1 g precision).
At the end of the study period, mice were anaesthetized with isofluorane with 1× phosphate-buffered saline (PBS) and subsequently with 4% formaldehyde in PBS. Tissue from lung and liver were removed and fixated in formalin for microscopic examination. Metastases were visualized and counted by tissue embedding in paraffin and sectioning with immunohistochemistry and histological stain (H&E) and immunostained with anti-HLA antibody. After blocking for 1 h with BSA (5%, frac V), the anti-HLA was incubated at 4° C. overnight, washed for 1 h in PBS, then incubated with biotinylated anti-mouse IgG for 1 h at room temperature. After washing with PBS, metastases were detected on the slide using Envision (Dako).
After blood collection, whole blood samples were centrifuged (at 10,000 m/s^2 for 15 min and then at 100,000 m/s^2 for 10 min), and plasma was isolated. The samples were stored at −80° C. until analysis.
Prior to analysis (30 min), samples and assay reagents were equilibrated to room temperature. The samples were run at a 1:4 dilution and quantified in duplicate using a multi-plex mouse panel for quantification of IL-1β, IL-18, IL-6, IL-8, IL-17A, and GM-CSF (Bio-Plex Pro assays, Bio-Rad Laboratories) on a Luminex Bio-Plex 200 System (Bio-Rad Laboratories).

[3] = cited from earlier work
[4] = cited from earlier work; remark: listed apart in the source
[5] = rats, suppositories containing triglycerides (Witepsol H5); cited from earlier work
[6] = cited from earlier work; remark: listed apart in the source
cats = conditions: doses of 4-8 g/kg; cited from earlier work
children with NPC = conditions: doses of up to 1000 mg/kg/d; cited from earlier work
[7] = parenteral, 12 g twice daily for 15 days; cited from earlier work
[8] = long-term parenteral, 200 mg/kg; cited from earlier work
SwN2a cells = conditions: cited from earlier work
Tg19959 mice = conditions: four months of subcutaneous administration; cited from earlier work
[9] = cited from earlier work; remark: listed apart in the source
whole blood = conditions: cited from earlier work
rats = conditions: rat, in vivo, iv; cited from earlier work
[10] = cited from earlier work; remark: listed apart in the source
mice/rats = conditions: in vivo; cited from earlier work
BBB = conditions: cited from earlier work
keratinocytes = conditions: cited from earlier work
[11] = IP 800 mg/kg per week for six weeks

## CC(O)COC[C@H]1O[C@@H]2O[C@H]3[C@H](O)[C@@H](O)[C@@H](O[C@H]4[C@H](O)[C@@H](O)[C@@H](O[C@H]5[C@H](O)[C@@H](O)[C@@H](O[C@H]6[C@H](O)[C@@H](O)[C@@H](O[C@H]7[C@H](O)[C@@H](O)[C@@H](O[C@H]8[C@H](O)[C@@H](O)[C@@H](O[C@H]1[C@H](O)[C@H]2O)O[C@@H]8COCC(C)O)O[C@@H]7COCC(C)O)O[C@@H]6COCC(C)O)O[C@@H]5COCC(C)O)O[C@@H]4COCC(C)O)O[C@@H]3COCC(C)O (stereo partly drawn) [HP-β-CD, hydroxypropyl-beta-cyclodextrin]
[1]
  cell migration / wound closure, concentration dependence: migration decreased with higher concentration
[2]; [11]
  Tumor volume, median: 378 mm3
  effect on tumor volume: effective
[2]; conventional 0.05 level
  plasma cytokines (IL-1β, IL-18, IL-6, IL-8, IL-17A, GM-CSF) versus Vehicle: significant in four other markers (not in IL-8)
[2]; groups of 15 mice
  mice that did not develop lung metastases: 3 mice
  mice who died: two
[3]; i.v.
  half-life (t1/2) after i.v. in rats: 20 min
[3]; oral
  oral absorption in rats: ≤3%
[4]
  excreted after i.v. unchanged in urine: ~90%
[5]
  rectal absorption: 26%
[6]; CHMP 2014
  Permitted Daily Exposure (PDE) threshold, parenteral: 10 mg/kg/day
[6]; Oct. 9, 2017
  Permitted Daily Exposure (PDE) threshold, parenteral, revised: 200 mg/kg/day
cats
  hearing: causes permanent hearing loss
Children with NPC
  tolerability: well tolerated
[7]
  side effects: No side effects were observed
[8]
  bone mineral density (BMD): decrease bone mineral density (BMD)
SwN2a cells
  level of membrane cholesterol: reduced
  levels of Aβ42: dramatically lowered
Tg19959 mice
  spatial learning and memory deficits: significantly improved spatial learning and memory deficits
[9]
  Solubility in water: >600 g/l and >600 ^2) g/l
Whole blood
  whole blood TD50: 9 mM/L
rats
  i.v. toxicity, 1 g/kg daily: no signs ^6)
[10]
  i.v. toxicity, 500 mg/kg: no damage
mice/rats
  LD50 i.v./i.p. in mice/rats: 10000 mg/kg
BBB; 2 h, 1 mM
  Transport across BBB: 6.6 (1 mM) %
BBB
  BBB breakdown: 2.5 mM
  toxicity on the BBB model: similarly safe
keratinocytes
  caspase-dependent apoptotic cell death: not
